Assay results: ChEMBL document CHEMBL4665643 (Bioorg Med Chem Lett, 2019)

Legend:
[1] = target: Casein kinase I isoform alpha (Homo sapiens) (UniProt P48729); assay: Inhibition of recombinant human GST-tagged full length CK1alpha1 expressed in baculovirus expression system using Ser/Thr 11 as substrate at 0.1 uM incubated for 60 mins by Z'-Lyte assay relative to control
[2] = target: T1, Phosphatidylinositol 4,5-bisphosphate 3-kinase catalytic subunit delta isoform (Homo sapiens) (UniProt O00329); assay: Inhibition of recombinant human His-tagged full length PI3Kdelta expressed in baculovirus expression system using PIP:PS as substrate at 0.1 uM incubated for 60 mins by Adapta assay relative to control
T1 sequence (whole entry): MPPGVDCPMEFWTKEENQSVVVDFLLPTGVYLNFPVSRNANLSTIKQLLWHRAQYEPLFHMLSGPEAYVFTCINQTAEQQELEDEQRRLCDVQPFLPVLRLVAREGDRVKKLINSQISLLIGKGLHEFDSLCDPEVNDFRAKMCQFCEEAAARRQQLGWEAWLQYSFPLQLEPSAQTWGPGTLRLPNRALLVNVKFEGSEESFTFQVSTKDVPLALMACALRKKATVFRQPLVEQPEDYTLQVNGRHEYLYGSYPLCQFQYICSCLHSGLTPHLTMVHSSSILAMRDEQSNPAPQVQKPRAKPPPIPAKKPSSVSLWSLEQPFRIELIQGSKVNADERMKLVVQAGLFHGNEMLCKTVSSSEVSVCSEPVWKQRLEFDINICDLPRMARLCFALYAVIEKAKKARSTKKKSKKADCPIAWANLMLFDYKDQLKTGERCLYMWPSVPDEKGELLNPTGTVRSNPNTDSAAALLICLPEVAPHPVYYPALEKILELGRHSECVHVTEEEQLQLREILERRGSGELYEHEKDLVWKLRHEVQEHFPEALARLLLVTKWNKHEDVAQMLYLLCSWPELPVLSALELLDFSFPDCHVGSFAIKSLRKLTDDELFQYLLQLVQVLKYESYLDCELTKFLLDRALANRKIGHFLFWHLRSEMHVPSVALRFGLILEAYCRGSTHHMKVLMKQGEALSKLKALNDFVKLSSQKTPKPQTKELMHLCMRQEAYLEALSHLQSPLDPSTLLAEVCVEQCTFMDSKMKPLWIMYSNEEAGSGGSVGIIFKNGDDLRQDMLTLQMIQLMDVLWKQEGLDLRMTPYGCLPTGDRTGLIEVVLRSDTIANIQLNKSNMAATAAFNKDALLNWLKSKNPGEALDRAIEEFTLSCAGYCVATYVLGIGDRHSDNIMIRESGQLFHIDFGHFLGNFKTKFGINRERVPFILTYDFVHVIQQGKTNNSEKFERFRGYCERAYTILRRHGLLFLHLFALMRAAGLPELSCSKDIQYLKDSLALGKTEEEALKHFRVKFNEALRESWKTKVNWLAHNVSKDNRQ

[3] = target: T2, Dual specificity protein kinase TTK (Homo sapiens) (UniProt P33981); assay: Inhibition of tracer 236 binding to recombinant human GST-tagged full length TTK expressed in baculovirus expression system at 0.1 uM incubated for 60 mins by Lanthascreen assay relative to control
T2 sequence (whole entry): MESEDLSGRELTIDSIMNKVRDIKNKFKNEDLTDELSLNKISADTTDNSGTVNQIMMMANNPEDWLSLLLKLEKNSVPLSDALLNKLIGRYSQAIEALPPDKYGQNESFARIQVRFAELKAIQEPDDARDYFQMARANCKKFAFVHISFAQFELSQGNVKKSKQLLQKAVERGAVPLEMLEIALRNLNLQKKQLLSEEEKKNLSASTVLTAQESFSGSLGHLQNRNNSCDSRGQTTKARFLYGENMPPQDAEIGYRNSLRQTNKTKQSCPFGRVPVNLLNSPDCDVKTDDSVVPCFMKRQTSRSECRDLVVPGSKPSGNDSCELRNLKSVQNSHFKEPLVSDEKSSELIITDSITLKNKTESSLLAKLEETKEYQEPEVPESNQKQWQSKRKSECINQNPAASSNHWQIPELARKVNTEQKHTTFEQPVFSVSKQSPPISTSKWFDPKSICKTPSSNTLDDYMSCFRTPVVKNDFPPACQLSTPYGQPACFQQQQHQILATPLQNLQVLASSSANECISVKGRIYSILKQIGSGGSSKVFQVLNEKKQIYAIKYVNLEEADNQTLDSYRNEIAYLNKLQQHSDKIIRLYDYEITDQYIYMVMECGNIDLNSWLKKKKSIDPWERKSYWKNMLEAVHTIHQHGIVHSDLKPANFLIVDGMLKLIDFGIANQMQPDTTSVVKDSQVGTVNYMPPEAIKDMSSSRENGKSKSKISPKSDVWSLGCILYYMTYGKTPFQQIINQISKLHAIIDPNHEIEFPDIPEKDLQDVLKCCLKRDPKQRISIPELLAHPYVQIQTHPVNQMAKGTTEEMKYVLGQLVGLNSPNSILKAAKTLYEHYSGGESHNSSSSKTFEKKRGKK

[4] = target: Myosin light chain kinase, smooth muscle (Homo sapiens) (UniProt Q15746); assay: Inhibition of tracer 236 binding to recombinant human GST-tagged MYLK (1428 to 1771 residues) expressed in baculovirus expression system at 0.1 uM incubated for 60 mins by Lanthascreen assay relative to control
[5] = target: T3, G protein-coupled receptor kinase 3 (Homo sapiens) (UniProt P35626); assay: Inhibition of recombinant human GST-tagged full length GRK3 expressed in baculovirus expression system using Ser/Thr 16 as substrate at 0.1 uM incubated for 60 mins by Z'-Lyte assay relative to control
T3 sequence (whole entry): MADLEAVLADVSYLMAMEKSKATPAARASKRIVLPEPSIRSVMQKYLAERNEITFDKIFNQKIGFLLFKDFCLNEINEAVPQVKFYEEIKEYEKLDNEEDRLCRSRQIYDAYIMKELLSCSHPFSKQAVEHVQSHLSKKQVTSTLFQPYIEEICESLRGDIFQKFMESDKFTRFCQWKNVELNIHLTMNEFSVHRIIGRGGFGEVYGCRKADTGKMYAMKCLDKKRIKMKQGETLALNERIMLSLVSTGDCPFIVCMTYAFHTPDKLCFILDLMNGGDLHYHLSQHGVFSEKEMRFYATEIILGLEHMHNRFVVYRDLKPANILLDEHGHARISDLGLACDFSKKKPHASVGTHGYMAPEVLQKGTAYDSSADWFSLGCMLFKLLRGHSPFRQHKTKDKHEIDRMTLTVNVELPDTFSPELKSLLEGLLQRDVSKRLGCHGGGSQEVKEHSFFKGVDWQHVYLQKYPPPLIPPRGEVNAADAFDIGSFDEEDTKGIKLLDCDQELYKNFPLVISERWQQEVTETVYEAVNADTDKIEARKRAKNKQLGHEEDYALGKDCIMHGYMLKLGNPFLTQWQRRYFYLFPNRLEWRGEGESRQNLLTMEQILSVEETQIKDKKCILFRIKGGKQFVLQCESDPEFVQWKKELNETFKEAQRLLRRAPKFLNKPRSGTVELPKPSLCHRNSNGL

Chain of Myosin light chain kinase, smooth muscle (Homo sapiens) (Q15746 whole entry, the tested form may be a part): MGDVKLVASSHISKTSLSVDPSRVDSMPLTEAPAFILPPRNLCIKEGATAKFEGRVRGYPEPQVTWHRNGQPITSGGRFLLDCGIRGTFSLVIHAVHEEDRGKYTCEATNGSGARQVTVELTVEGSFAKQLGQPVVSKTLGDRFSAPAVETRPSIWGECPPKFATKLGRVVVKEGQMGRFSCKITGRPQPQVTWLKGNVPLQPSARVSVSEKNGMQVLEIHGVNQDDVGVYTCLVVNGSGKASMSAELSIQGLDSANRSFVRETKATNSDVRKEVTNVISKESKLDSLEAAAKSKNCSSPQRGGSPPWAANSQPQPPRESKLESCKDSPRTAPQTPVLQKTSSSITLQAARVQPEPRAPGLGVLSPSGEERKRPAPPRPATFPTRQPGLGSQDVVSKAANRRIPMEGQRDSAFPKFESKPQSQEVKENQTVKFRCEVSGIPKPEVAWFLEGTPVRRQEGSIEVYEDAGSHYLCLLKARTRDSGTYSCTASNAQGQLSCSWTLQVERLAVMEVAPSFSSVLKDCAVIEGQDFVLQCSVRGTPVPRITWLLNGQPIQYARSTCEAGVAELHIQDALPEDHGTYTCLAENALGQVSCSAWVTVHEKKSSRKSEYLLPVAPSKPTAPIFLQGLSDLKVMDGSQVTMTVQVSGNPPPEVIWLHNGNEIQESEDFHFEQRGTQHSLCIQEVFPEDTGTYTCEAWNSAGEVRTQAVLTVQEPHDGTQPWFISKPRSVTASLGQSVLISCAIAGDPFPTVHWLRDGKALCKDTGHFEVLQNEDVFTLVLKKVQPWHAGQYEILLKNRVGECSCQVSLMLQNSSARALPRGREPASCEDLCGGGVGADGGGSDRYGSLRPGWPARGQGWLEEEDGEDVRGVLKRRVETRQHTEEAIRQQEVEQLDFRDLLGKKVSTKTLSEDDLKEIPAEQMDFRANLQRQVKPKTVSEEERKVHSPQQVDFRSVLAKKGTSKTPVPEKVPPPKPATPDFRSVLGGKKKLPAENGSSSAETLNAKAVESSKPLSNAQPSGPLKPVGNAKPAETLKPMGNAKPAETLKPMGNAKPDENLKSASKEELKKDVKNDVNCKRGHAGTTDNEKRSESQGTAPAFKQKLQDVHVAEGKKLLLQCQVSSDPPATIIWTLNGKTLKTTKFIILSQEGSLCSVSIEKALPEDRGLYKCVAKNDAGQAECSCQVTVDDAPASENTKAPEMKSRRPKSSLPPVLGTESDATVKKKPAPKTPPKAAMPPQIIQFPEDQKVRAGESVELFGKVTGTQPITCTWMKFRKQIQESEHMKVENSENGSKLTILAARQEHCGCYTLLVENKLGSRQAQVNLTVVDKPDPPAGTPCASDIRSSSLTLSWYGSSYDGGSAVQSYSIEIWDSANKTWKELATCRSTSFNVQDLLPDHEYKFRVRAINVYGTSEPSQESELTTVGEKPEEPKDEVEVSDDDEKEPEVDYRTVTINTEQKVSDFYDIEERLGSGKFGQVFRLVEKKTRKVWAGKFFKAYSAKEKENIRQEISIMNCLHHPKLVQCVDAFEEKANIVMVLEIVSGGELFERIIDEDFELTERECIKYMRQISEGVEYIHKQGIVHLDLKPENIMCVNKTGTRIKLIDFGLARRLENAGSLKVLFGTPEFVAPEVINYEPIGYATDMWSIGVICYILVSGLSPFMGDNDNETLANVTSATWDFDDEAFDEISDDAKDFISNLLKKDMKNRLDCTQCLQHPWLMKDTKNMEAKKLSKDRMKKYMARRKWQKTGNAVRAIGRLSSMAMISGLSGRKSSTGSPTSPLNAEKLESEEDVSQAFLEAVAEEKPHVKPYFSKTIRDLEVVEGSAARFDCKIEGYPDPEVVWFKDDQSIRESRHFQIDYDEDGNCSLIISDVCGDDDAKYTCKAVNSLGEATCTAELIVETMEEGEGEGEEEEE
Chain of Casein kinase I isoform alpha (Homo sapiens) (P48729 2-337 limits assumed): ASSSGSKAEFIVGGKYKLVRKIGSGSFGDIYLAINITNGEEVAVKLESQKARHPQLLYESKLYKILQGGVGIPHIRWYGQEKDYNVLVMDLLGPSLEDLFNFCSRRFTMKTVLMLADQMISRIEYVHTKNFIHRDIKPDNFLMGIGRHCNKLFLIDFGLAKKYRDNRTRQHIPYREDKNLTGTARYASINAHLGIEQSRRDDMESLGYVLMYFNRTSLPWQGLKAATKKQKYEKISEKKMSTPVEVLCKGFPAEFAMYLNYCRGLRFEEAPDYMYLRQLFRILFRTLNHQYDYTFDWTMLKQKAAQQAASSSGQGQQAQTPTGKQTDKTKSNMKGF

Row | Structure (SMILES) | inhibition [1] [%] | inhibition [2] [%] | inhibition [3] [%] | inhibition [4] [%] | inhibition [5] [%]
1 | O=C(Nc1c[nH]nc1-c1cc2ccccc2cc1OC(F)F)c1cnn2cccnc12 | -1 | 6 | -3 | 0 | 1
2 | O=C(Nc1c[nH]nc1-c1cc(Cl)ccc1OC(F)F)c1cnn2cccnc12 | 10 | 7 | 4 | 2 | -1
3 | Cn1cc(NC(=O)c2cnn3cccnc23)c(-c2cc(Cl)ccc2OC(F)F)n1 | 6 | 6 | 5 | 11 | 3
